How the values were obtained:
[1] = system: convulsions induced (MES); experiment: MES test (convulsions produced by electroshocks) in mice, drugs alone and in combination, isobolographic analysis; type: in vivo
Description: MES test in rodents is broadly accepted as an experimental model of tonic-clonic convulsions or certain partial convulsions with or without secondary generalization. Brain concentrations were also assessed with anti-epilepsy compounds to monitor whether effects result in a pharmacodynamic and/or pharmacokinetic interaction.
Tests were carried out in Swiss, male, adult, albine mice with a weight between 22-26 gr.
Firstly, separately administered medicament effects were studied.

[2] = cited from earlier work
[3] = cited from earlier work; remark: listed apart in the source
[4] = in vivo; cited from earlier work
[5] = CZP 20 mg/kg peritoneally, 30 minutes before MES test
[6] = CZP 25 mg/kg peritoneally, 30 minutes before MES test
[7] = CZP 30 mg/kg peritoneally, 30 minutes before MES test
[8] = CZP 35 mg/kg peritoneally, 30 minutes before MES test
[9] = CZP 40 mg/kg peritoneally, 30 minutes before MES test
[10] = LTG 3 mg/kg peritoneally, 60 minutes before MES test
[11] = LTG 4 mg/kg peritoneally, 60 minutes before MES test
[12] = LTG 5 mg/kg peritoneally, 60 minutes before MES test
[13] = LTG 6 mg/kg peritoneally, 60 minutes before MES test
[14] = LTG 8 mg/kg peritoneally, 60 minutes before MES test

In the case of `O=C1CN=C(c2ccccc2Cl)c2cc([N+](=O)[O-])ccc2N1` [CZP, Clonazepam], the “% (Percentage of protection against MES test)” value [1, 5] is reported as 12.5%, the “P/T (Number of protected animals against electroconvulsion / Total number of animals challenged with MES test)” value [1, 5] is reported as 1/8 and the “% (Percentage of protection against MES test)” value [1, 6] is reported as 25%. For the same molecule, the “P/T (Number of protected animals against electroconvulsion / Total number of animals challenged with MES test)” value [1, 6] was 2/8, the “% (Percentage of protection against MES test)” value [1, 7] was 50% and the “P/T (Number of protected animals against electroconvulsion / Total number of animals challenged with MES test)” value [1, 7] was 4/8. For the same molecule, the “% (Percentage of protection against MES test)” value [1, 8] was 75%, the “P/T (Number of protected animals against electroconvulsion / Total number of animals challenged with MES test)” value [1, 8] was 6/8 and the “% (Percentage of protection against MES test)” value [1, 9] was 100%. For the same molecule, the “P/T (Number of protected animals against electroconvulsion / Total number of animals challenged with MES test)” value [1, 9] was 8/8, the bioavailability ([2]; orally administered) was 90% and the “recovered in urine in unaltered form” value ([2]; urine, po) was “Less than 0.5%”. The “attachment to plasma proteins” value [3] was 85%.

For `Nc1nnc(-c2cccc(Cl)c2Cl)c(N)n1` [LTG, Lamotrigine], the “% (Percentage of protection against MES test)” value [1, 10] was 0%, the “P/T (Number of protected animals against electroconvulsion / Total number of animals challenged with MES test)” value [1, 10] was 0/8 and the “% (Percentage of protection against MES test)” value [1, 11] was 25%. The “P/T (Number of protected animals against electroconvulsion / Total number of animals challenged with MES test)” value [1, 11] was 2/8, the “% (Percentage of protection against MES test)” value [1, 12] was 50% and the “P/T (Number of protected animals against electroconvulsion / Total number of animals challenged with MES test)” value [1, 12] was 4/8. The “% (Percentage of protection against MES test)” value [1, 13] was 75%, the “P/T (Number of protected animals against electroconvulsion / Total number of animals challenged with MES test)” value [1, 13] was 6/8 and the “% (Percentage of protection against MES test)” value [1, 14] was 100%. For the same molecule, the “P/T (Number of protected animals against electroconvulsion / Total number of animals challenged with MES test)” value [1, 14] was 8/8, the “removed without changes by feces” value ([2]; feces) was 2% and the drug unalteredly removed ([2]; in vivo) was 10%. For the same molecule, the “adverse event: asthenia” value [4] was 10%, the “adverse event: ataxia” value [4] was 11% and the “adverse event: diplopy” value [4] was 14%. The “adverse event: generalized allergic rash” value [4] was 2-3%, the “adverse event: headache” value [4] was 12% and the “adverse event: skin rash” value [4] was 3%. For the same molecule, the “adverse event: somnolence” value [4] was 13%, the “adverse event: vertigo” value [4] was 14% and the “attachment to plasma proteins” value [3] was “about 55%”.
